Experimental data taken from US4224442A, “7-Ureido acetamido substituted cephalosporin antibiotics” (Eli Lilly and Company, priority 1975, dated 1980).
Converted amounts (≈) assume the structure as drawn.

Key:
Aerobacter aerogenes = assay: Gradient Plate in vitro method, MIC; assay type: cell-based; settings: Klebsiella aerogenes, read-out: Minimum Inhibitory Concentration
Description: (§1) The antibiotic activity of the cephalosporin compounds of the formula I is illustrated by the data presented in Table I for representative compounds. The values in the table are the minimum inhibitory concentrations (MIC) for the test compounds against the indicated microorganisms. The MIC values were obtained in the Gradient Plate in vitro method for determining antibiotic activity.
(§2) Minimum Inhibitory Concentration (mcg./ml.)

Klebsiella pneumoniae = assay: Gradient Plate in vitro method, MIC; assay type: cell-based; settings: read-out: Minimum Inhibitory Concentration
Description: as §1, §2

Pseudomonas aeruginosa = assay: Gradient Plate in vitro method, MIC; assay type: cell-based; settings: read-out: Minimum Inhibitory Concentration
Description: as §1, §2

Salmonella heidelberg = assay: Gradient Plate in vitro method, MIC; assay type: cell-based; settings: Salmonella enterica, read-out: Minimum Inhibitory Concentration
Description: as §1, §2

Shigella sp. = assay: Gradient Plate in vitro method, MIC; assay type: cell-based; settings: read-out: Minimum Inhibitory Concentration
Description: as §1, §2

Escherichia coli [1] = assay: Gradient Plate in vitro method, MIC; assay type: cell-based; settings: read-out: Minimum Inhibitory Concentration
Description: (§3) The values in the table are the minimum inhibitory concentrations (MIC) for the test compounds against the indicated microorganisms. The MIC values were obtained in the Gradient Plate in vitro method for determining antibiotic activity.

Serratia marcescens = assay: Gradient Plate in vitro method, MIC; assay type: cell-based; settings: read-out: Minimum Inhibitory Concentration
Description: as §3

V32 = assay: Gradient Plate in vitro method, MIC; assay type: cell-based, penicillin resistant Staphyloccus; settings: V32, penicillin resistant Staphylococcus, read-out: Minimum Inhibitory Concentration
Description: as §1, §2
(§4) ^1 Test organisms V41, V32 and V84 are penicillin resistant
(§5) Staphyloccus, X400 is a methicillin resistant Staphylococcus.

V41 = assay: Gradient Plate in vitro method, MIC; assay type: cell-based, penicillin resistant Staphyloccus; settings: V41, penicillin resistant Staphylococcus, read-out: Minimum Inhibitory Concentration
Description: as §1, §2, §4, §5

V84 = assay: Gradient Plate in vitro method, MIC; assay type: cell-based, penicillin resistant Staphyloccus; settings: V84, penicillin resistant Staphylococcus, read-out: Minimum Inhibitory Concentration
Description: as §1, §2, §4, §5

X400 = assay: Gradient Plate in vitro method, MIC; assay type: cell-based; settings: X400, methicillin resistant Staphylococcus, read-out: Minimum Inhibitory Concentration
Description: as §1, §2, §4, §5

Staphylococcus aureus = assay: standard gear agar dilution method, MIC; assay type: cell-based
Description: In the standard gear agar dilution method, the MIC values for the above test compounds A through E against Staphylococcus aureus were as follows: A, 2; B, 1; C, 0.5; D, 2; and E, 0.5 mcg./m1.

[2] = Electrometric titration in 66 percent DMF; assay type: physicochemical; settings: 66% dmf
Escherichia coli [3] = assay: in vivo effective dose in experimental infections in mice; settings: ip, E. coli infection in mice
Description: (§6) The in vivo effective dose […] in mg./kg. for representative antibiotics of the formula I has been determined in experimental infections in mice. Table II lists the ED50 dose vs. Streptococcus pyogenes and Escherichia coli infections. In the table, the antibiotics are identified with the R", R', and R1 -R3 terms of Formula I. |Test Compound ED50 (mg/kg × 2) i.p.

Streptococcus pyogenes = assay: as above; settings: ip, S. pyogenes infection in mice
Description: as §6

SMILES: CNC(=O)N(C)C(=O)NC(C(=O)NC1C(=O)N2C(C(=O)O)=C(CSc3nnc(C)s3)CSC12)c1ccc(O)cc1 (stereo not drawn) [Test Compound B, 7-[α-(3-methylcarbamoyl-3-methyl-1-ureido)-α-(4-hydroxyphenyl)acetamido]-3-(5-methyl-1,3,4-thiadiazole-2-ylthiomethyl)-3-cephem-4-carboxylic acid]
- MIC (Aerobacter aerogenes): 4 µg/mL (≈ 6.58 µM)
- MIC (Klebsiella pneumoniae): 4 µg/mL (≈ 6.58 µM)
- MIC (Pseudomonas aeruginosa): 28 µg/mL (≈ 46.1 µM)
- MIC (Salmonella heidelberg): 2 µg/mL (≈ 3.29 µM)
- MIC (Shigella sp.): 3 µg/mL (≈ 4.94 µM)
- MIC (Escherichia coli [1]): 4 µg/mL (≈ 6.58 µM)
- MIC (Serratia marcescens): 19 µg/mL (≈ 31.3 µM)
- MIC (V32): 10 µg/mL (≈ 16.5 µM)
- MIC (V41): 8 µg/mL (≈ 13.2 µM)
- MIC (V84): 0.6 µg/mL (≈ 0.987 µM)
- MIC (X400): > 20 µg/mL
- MIC (Staphylococcus aureus): 1 µg/mL (≈ 1.65 µM)
- pKa ([2]; first of two titratable groups): 4.8
- pKa ([2]; second of two titratable groups): 12.2

SMILES: CNC(=O)N(C)C(=O)NC(C(=O)NC1C(=O)N2C(C(=O)O)=C(CSc3nnnn3C)CSC12)c1ccc(O)cc1 (stereo not drawn) [Test Compound A, 7-[α-(3-methylcarbamoyl-3-methyl-1-ureido)-α-(4-hydroxyphenyl)acetamido]-3-(1-methyl-1H-tetrazole-5-ylthiomethyl)-3-cephem-4-carboxylic acid]
- MIC (Aerobacter aerogenes): 1 µg/mL (≈ 1.69 µM)
- MIC (Klebsiella pneumoniae): 3.5 µg/mL (≈ 5.92 µM)
- MIC (Pseudomonas aeruginosa): 18 µg/mL (≈ 30.4 µM)
- MIC (Salmonella heidelberg): 1 µg/mL (≈ 1.69 µM)
- MIC (Shigella sp.): 1 µg/mL (≈ 1.69 µM)
- MIC (Escherichia coli [1]): 1 µg/mL (≈ 1.69 µM)
- MIC (Serratia marcescens): 8 µg/mL (≈ 13.5 µM)
- MIC (V32): 4.8 µg/mL (≈ 8.11 µM)
- MIC (V41): 4 µg/mL (≈ 6.76 µM)
- MIC (V84): 0.6 µg/mL (≈ 1.01 µM)
- MIC (X400): > 20 µg/mL
- MIC (Staphylococcus aureus): 2 µg/mL (≈ 3.38 µM)
- ED50 (Escherichia coli [3]): 72 mg/kg
- ED50 (Streptococcus pyogenes): 0.7 mg/kg

SMILES: CC(=O)OCC1=C(C(=O)O)N2C(=O)C(NC(=O)C(NC(=O)N3CCNC3=O)c3ccccc3)[C@H]2SC1 (stereo partly drawn) [Test Compound E, 7-[α-(imidazolidine-2-one-1-ylcarbonylamino)-α-phenylacetamido]-3-acetoxymethyl-3-cephem-4-carboxylic acid]
- MIC (Aerobacter aerogenes): 10 µg/mL (≈ 19.3 µM)
- MIC (Klebsiella pneumoniae): 12 µg/mL (≈ 23.2 µM)
- MIC (Pseudomonas aeruginosa): 24 µg/mL (≈ 46.4 µM)
- MIC (Salmonella heidelberg): 11 µg/mL (≈ 21.3 µM)
- MIC (Shigella sp.): 10 µg/mL (≈ 19.3 µM)
- MIC (Escherichia coli [1]): 18 µg/mL (≈ 34.8 µM)
- MIC (Serratia marcescens): 42 µg/mL (≈ 81.2 µM)
- MIC (V32): 5 µg/mL (≈ 9.66 µM)
- MIC (V41): 2 µg/mL (≈ 3.86 µM)
- MIC (V84): 0.4 µg/mL (≈ 0.773 µM)
- MIC (X400): > 20 µg/mL
- MIC (Staphylococcus aureus): 0.5 µg/mL (≈ 0.966 µM)

SMILES: Cn1nnnc1SCC1=C(C(=O)O)N2C(=O)C(NC(=O)C(NC(=O)N3CCNC3=O)c3ccccc3)[C@H]2SC1 (stereo partly drawn) [Test Compound D, 7-[α-(imidazolidine-2-one-1-ylcarbonylamino)-α-phenylacetamido]-3-(1-methyl-1H-tetrazole-5-ylthiomethyl)-3-cephem-4-carboxylic acid]
- MIC (Aerobacter aerogenes): 12 µg/mL (≈ 20.9 µM)
- MIC (Klebsiella pneumoniae): 7 µg/mL (≈ 12.2 µM)
- MIC (Pseudomonas aeruginosa): 90 µg/mL (≈ 157 µM)
- MIC (Salmonella heidelberg): 6 µg/mL (≈ 10.5 µM)
- MIC (Shigella sp.): 7 µg/mL (≈ 12.2 µM)
- MIC (Escherichia coli [1]): 12 µg/mL (≈ 20.9 µM)
- MIC (Serratia marcescens): 70 µg/mL (≈ 122 µM)
- MIC (V32): 7 µg/mL (≈ 12.2 µM)
- MIC (V41): 6 µg/mL (≈ 10.5 µM)
- MIC (V84): 0.9 µg/mL (≈ 1.57 µM)
- MIC (X400): > 20 µg/mL
- MIC (Staphylococcus aureus): 2 µg/mL (≈ 3.49 µM)

SMILES: Cn1nnnc1SCC1=C(C(=O)O)N2C(=O)C(NC(=O)C(NC(=O)NC(N)=O)c3ccccc3)C2SC1 (stereo not drawn) [Test Compound H]
- MIC (Aerobacter aerogenes): 15 µg/mL (≈ 27.4 µM)
- MIC (Klebsiella pneumoniae): 35 µg/mL (≈ 63.9 µM)
- MIC (Pseudomonas aeruginosa): 60 µg/mL (≈ 110 µM)
- MIC (Salmonella heidelberg): 12 µg/mL (≈ 21.9 µM)
- MIC (Shigella sp.): 9.5 µg/mL (≈ 17.3 µM)
- MIC (Escherichia coli [1]): 16 µg/mL (≈ 29.2 µM)
- MIC (Serratia marcescens): > 200 µg/mL
- MIC (V32): 4 µg/mL (≈ 7.3 µM)
- MIC (V41): 2.5 µg/mL (≈ 4.57 µM)
- MIC (V84): 1 µg/mL (≈ 1.83 µM)
- MIC (X400): > 20 µg/mL
- ED50 (Escherichia coli [3]): < 72 mg/kg
- ED50 (Streptococcus pyogenes): 0.7 mg/kg

SMILES: CNC(=O)NC(=O)NC(C(=O)NC1C(=O)N2C(C(=O)O)=C(CSc3nnnn3C)CSC12)c1ccccc1 (stereo not drawn) [Test Compound J, 7-[α-(3-methylcarbamoyl-1-ureido)-α-phenylacetamido)-3-(1-methyl-1H-tetrazole-5-ylthiomethyl)-3-cephem-4-carboxylic acid]
- MIC (Aerobacter aerogenes): 4.3 µg/mL (≈ 7.66 µM)
- MIC (Klebsiella pneumoniae): 10 µg/mL (≈ 17.8 µM)
- MIC (Pseudomonas aeruginosa): 22.3 µg/mL (≈ 39.7 µM)
- MIC (Salmonella heidelberg): 4.3 µg/mL (≈ 7.66 µM)
- MIC (Shigella sp.): 4 µg/mL (≈ 7.12 µM)
- MIC (Escherichia coli [1]): 7.5 µg/mL (≈ 13.4 µM)
- MIC (Serratia marcescens): 130 µg/mL (≈ 231 µM)
- MIC (V32): 3 µg/mL (≈ 5.34 µM)
- MIC (V41): 2 µg/mL (≈ 3.56 µM)
- MIC (V84): 5 µg/mL (≈ 8.9 µM)
- MIC (X400): > 20 µg/mL
- ED50 (Escherichia coli [3]): 72 mg/kg
- ED50 (Streptococcus pyogenes): 0.7 mg/kg
